According to patent US12091393B2, “Small molecule vaccine adjuvant for enhancing or prolonging immune response” (The Regents of the University of California, priority 2018, dated 2024):
“Also recorded” adds a separate entry of the source. Where two headings read alike, the source gives them in different places.

Assays:
[1] = system: NF-κB; experiment: cell-based NF-κB FRET assay; details: for NF-κB FRET Compound + LPS % Activation: two point normalized, compound 1 as 200%, LPS (10 ng/mL) as 100%
Excerpt: Site A was assigned the 4-substituent of thiazole ring, site B was the thiazole ring itself, site C was the central amide bond in the structure, site D was the benzene ring bearing 1,4-carboxyl and sulfamoyl group, site E was the sulfonamide functional group and site F was the amide substituent on the sulfamoyl group.

[2] = Reactogenicity (FIG. 21)
[3] = system: BMDCs; experiment: Gene expression in BMDCs; type: cell-based
[4] = system: JNK, P38 and Erk1/2; experiment: MAPK activation in THP-1 cells; type: cell-based; details: #42 alone
[5] = system: BMDCs; experiment: Cytokine production in BMDCs; type: cell-based; details: for cytokine production (mIL-12, mIL-6, mTNFalpha) induced by Dectin1: with Dectin1 (FIGS. 4A-4C)
[6] = system: THP-1 cells; experiment: RNA seq in THP-1 cells; type: cell-based
[7] = system: BMDCs; experiment: Cytotoxicity / cell viability of BMDCs; type: cell-based
[8] = system: NF-κB; experiment: Measurement of NF-κB activation using THP1-Blue NF-κB cells (SEAP); type: cell-based; details: for activity at 5 µM: 20 h, two point normalized, compound 1 as 200%; for NF-κB activity (SAR discussion, in words): evaluated in both the presence and absence of LPS
[9] = system: NF-kB; experiment: NF-kB phosphorylation and nuclear localization in THP-1 cells (ICC and WB); type: cell-based
[10] = system: THP-1 cells; experiment: Cell viability assay (MTT); type: cell-based; details: compound 5 μM alone, 18 h, normalized to DMSO as 100%
Summary of the method: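 THP-1 cells in RPMI/10% FBS got compound at a final 5 μM (0.05% DMSO) for 18 h. MTT (0.5 mg/mL) was then added for 4 to 6 h, followed by SDS/HCl lysis overnight. Absorbance was read at 570 nm against 650 nm reference.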

[11] = system: BMDCs; experiment: Co-stimulatory marker expression in BMDCs; type: cell-based; details: for Co-stimulatory markers: CD40 and CD86 induce by LPS or MPLA: BMDCs
[12] = system: THP-1 cells; experiment: Co-stimulatory marker expression in THP-1 cells; type: cell-based
[13] = compound 5 μM + LPS, LPS (10 ng/mL) as 100%, read-out: NF-κB SEAP Compound + LPS % Activation
[14] = compound 5 μM alone, LPS or DMSO as 100%, read-out: NF-κB SEAP Compound alone % Activation

SMILES	NF-κB FRET Compound + LPS % Activation [1] [%]	activity at 5 µM [8, 13] [%]	activity at 5 µM [8, 14] [%]	MTT Compound alone % Viability [10] [%]	NF-κB activity (SAR discussion, in words) [8]	further results
Cc1ccc(C)c(-c2csc(NC(=O)c3ccc(S(=O)(=O)N4CCCCC4)cc3)n2)c1 [Compound 1, N-(4-(2,5-dimethylphenyl)thiazol-2-yl)-4-(piperidin-1-ylsulfonyl)benzamide]	200.00	200	200	102.81		enhancement of NF-κB activity by LPS at 12 h (confirmatory kinetic screening) ([1]; in presence of LPS, 12 h incubation): most potent; reactogenicity [2]: not reactogenic; Gene expression: CD40, IL-12. CXCL5 expression ([3]; BMDCs): Enhancement of CD40, IL-12.; CD40, CXCL10 and IL-12 gene expression kinetics ([3]; by 10 hours after exposure, BDMCs, LPS and compound 42 (FIG. 7)): upregulated; MAPK activation: phosphorylation of JNK, P38 and Erk1/2 ([4]; listed as 42): induced; MAPK activation: phosphorylation of JNK, P38 and Erk1/2 ([4]; listed as #42): phosphorylation of JNK, P38 and Erk1/2; cytokine production (mIL-12, mIL-6, mTNFalpha) induced by Dectin1 ([5]; listed as 42): not enhanced; also recorded: not by Dectin1; cytokine production (mIL-12, mIL-6, mTNFalpha) induced by Dectin1 ([5]; listed as #42): not by Dectin1; cytokine production induced by TLR ligands ([5]; with a TLR ligand (FIGS. 3-4)): enhanced; RNA seq [6]: Induction of CSF-1 and LIF; Cytotoxicity [7]: Enhancement of cell viability; phosphorylation of NFkB, combination of LPS and compound ([9]; LPS + compound 42): synergistic; NF-kB phosphorylation and nuclear localization induced by LPS (ICC and WB) ([9]; THP-1 cells, with LPS, listed as #42): prolonged; also recorded: Prolongation of NF-kB; phosphorylation of NF-kB by compound alone ([9]; compound 42 alone (FIGS. 9A-9C)): induced and sustained; co-stimulatory molecule expression induced by LPS ([11]; BDMCs, LPS (FIGS. 5A-5G)): enhances; co-stimulatory molecule expression induced by MPLA ([11]; BDMCs, MPLA (FIGS. 6A-6F)): enhances; Co-stimulatory markers: CD40 and CD86 induce by LPS or MPLA ([11]; listed as 42): enhanced; Co-stimulatory markers: CD40 and CD86 induce by LPS or MPLA ([11]; listed as #42): enhanced; also recorded: Enhancement of CD40 and CD86; Co-stimulatory markers: CD40 and CD86 induce by LPS [12]: Enhancement of CD40 and CD86
Cc1ccc(C)c(-c2csc(NC(=O)c3ccc(SC4CCCCC4)cc3)n2)c1 [Compound 49a, 4-(cyclohexylthio)-N-(4-(2,5-dimethylphenyl)thiazol-2-yl)benzamide]	139.79	114	99.7	85.22	none of these modifications at site D or E were tolerated	
CCCC1CCN(S(=O)(=O)c2ccc(C(=O)Nc3nc(-c4cc(C)ccc4Br)cs3)cc2)CC1 [Compound 59, N-(4-(2-bromo-5-methylphenyl)thiazol-2-yl)-4-((4-propylpiperidin-1-yl)sulfonyl)benzamide]	211.88	298	484	98.59	very potent and showed better potency than compound 1	
Cc1ccc(C)c(-c2csc(NC(=O)c3cccc(C(=O)N4CCCCC4)c3)n2)c1 [Compound 49d, N-(4-(2,5-dimethylphenyl)thiazol-2-yl)-3-(piperidine-1-carbonyl)benzamide]	136.46	112	99.6	88.06	none of these modifications at site D or E were tolerated	
